Experimental data from patent US20110039721A1, “METHOD FOR PREDICTION ABOUT CARCINOGENICITY OF SUBSTANCE IN RODENT” (Chemicals Evaluation and Research Institute, priority 2007, published 2011).

Assays:
[1] = test system: liver; details: in vivo; cited from earlier work
[2] = test system: rodent; details: in vivo; cited from earlier work
[3] = test system: mRNA expressed from the genes (A) to (D) in rat liver; experiment: Behavior of genes (mRNA expression level, oligo-DNA microarray) in rat liver after 28-day oral administration; type: in vivo; details: rat liver, oral once daily 28 days; for Behavior of gene caused by administration of chemical substance, Gene No. 4846 / Behavior of gene caused by administration of chemical substance, Gene No. 4218 / Behavior of gene caused by administration of chemical substance, Gene No. 2026 / Behavior of gene caused by administration of chemical substance, Gene No. 6182 / Behavior of gene caused by administration of chemical substance, Gene No. 5600: (A); for Behavior of gene caused by administration of chemical substance, Gene No. 4846: Unigene Rn.144554, defined direction +; for Behavior of gene caused by administration of chemical substance, Gene No. 4218: Unigene Rn.167075, defined direction +, significant = 1.5 times or more or 1/1.5 or less of control; for Behavior of gene caused by administration of chemical substance, Gene No. 2026: Unigene Rn.167075, defined direction −; for Behavior of gene caused by administration of chemical substance, Gene No. 6182: Unigene Rn.5834, defined direction +; for Behavior of gene caused by administration of chemical substance, Gene No. 5600: Unigene Rn.9836, defined direction +; for Behavior of gene caused by administration of chemical substance, Gene No. 1494 / Behavior of gene caused by administration of chemical substance, Gene No. 2045 / Behavior of gene caused by administration of chemical substance, Gene No. 2203: (B); for Behavior of gene caused by administration of chemical substance, Gene No. 1494: Unigene Rn.1430, defined direction −; for Behavior of gene caused by administration of chemical substance, Gene No. 2045: Unigene Rn.19329, defined direction +; for Behavior of gene caused by administration of chemical substance, Gene No. 2203: Unigene Rn.21240, defined direction +; for Behavior of gene caused by administration of chemical substance, Gene No. 533 / Behavior of gene caused by administration of chemical substance, Gene No. 725 / Behavior of gene caused by administration of chemical substance, Gene No. 1163 / Behavior of gene caused by administration of chemical substance, Gene No. 4973 / Behavior of gene caused by administration of chemical substance, Gene No. 4095 / Behavior of gene caused by administration of chemical substance, Gene No. 1334 / Behavior of gene caused by administration of chemical substance, Gene No. 6620 / Behavior of gene caused by administration of chemical substance, Gene No. 6303 / Behavior of gene caused by administration of chemical substance, Gene No. 5878 / Behavior of gene caused by administration of chemical substance, Gene No. 1131 / Behavior of gene caused by administration of chemical substance, Gene No. 1562 / Behavior of gene caused by administration of chemical substance, Gene No. 1741 / Behavior of gene caused by administration of chemical substance, Gene No. 893 / Behavior of gene caused by administration of chemical substance, Gene No. 6026 / Behavior of gene caused by administration of chemical substance, Gene No. 154 / Behavior of gene caused by administration of chemical substance, Gene No. 1993 / Behavior of gene caused by administration of chemical substance, Gene No. 813 / Behavior of gene caused by administration of chemical substance, Gene No. 2494 / Behavior of gene caused by administration of chemical substance, Gene No. 2546 / Behavior of gene caused by administration of chemical substance, Gene No. 3776 / Behavior of gene caused by administration of chemical substance, Gene No. 3929 / Behavior of gene caused by administration of chemical substance, Gene No. 1119 / Behavior of gene caused by administration of chemical substance, Gene No. 6742 / Behavior of gene caused by administration of chemical substance, Gene No. 5634: (C); for Behavior of gene caused by administration of chemical substance, Gene No. 533: Unigene Rn.106184, defined direction +; for Behavior of gene caused by administration of chemical substance, Gene No. 725: Unigene Rn.108075, defined direction −; for Behavior of gene caused by administration of chemical substance, Gene No. 1163: Unigene Rn.11766, defined direction +; for Behavior of gene caused by administration of chemical substance, Gene No. 4973: Unigene Rn.118529, defined direction −; for Behavior of gene caused by administration of chemical substance, Gene No. 4095: Unigene Rn.119024, defined direction −; for Behavior of gene caused by administration of chemical substance, Gene No. 1334 / Behavior of gene caused by administration of chemical substance, Gene No. 6620: Unigene Rn.120914, defined direction +; for Behavior of gene caused by administration of chemical substance, Gene No. 6303: Unigene Rn.123063, defined direction −; for Behavior of gene caused by administration of chemical substance, Gene No. 5878: Unigene Rn.143213, defined direction −; for Behavior of gene caused by administration of chemical substance, Gene No. 1131: Unigene Rn.144946, defined direction −; for Behavior of gene caused by administration of chemical substance, Gene No. 1562: Unigene Rn.14744, defined direction −; for Behavior of gene caused by administration of chemical substance, Gene No. 1741: Unigene Rn.1647, defined direction −; for Behavior of gene caused by administration of chemical substance, Gene No. 893: Unigene Rn.164817, defined direction +; for Behavior of gene caused by administration of chemical substance, Gene No. 6026: Unigene Rn.167685, defined direction −; for Behavior of gene caused by administration of chemical substance, Gene No. 154: Unigene Rn.185941, defined direction −; for Behavior of gene caused by administration of chemical substance, Gene No. 1993: Unigene Rn.18728, defined direction −; for Behavior of gene caused by administration of chemical substance, Gene No. 813: Unigene Rn.201760, defined direction +; for Behavior of gene caused by administration of chemical substance, Gene No. 2494: Unigene Rn.23969, defined direction +; for Behavior of gene caused by administration of chemical substance, Gene No. 2546: Unigene Rn.24561, defined direction −; for Behavior of gene caused by administration of chemical substance, Gene No. 3776: Unigene Rn.43232, defined direction −; for Behavior of gene caused by administration of chemical substance, Gene No. 3929: Unigene Rn.4620, defined direction +; for Behavior of gene caused by administration of chemical substance, Gene No. 1119: Unigene Rn.9757, defined direction +; for Behavior of gene caused by administration of chemical substance, Gene No. 6742: Unigene Rn.9779, defined direction +; for Behavior of gene caused by administration of chemical substance, Gene No. 5634: Unigene Rn.9862, defined direction −; for Behavior of gene caused by administration of chemical substance, Gene No. 5726: (D), Unigene Rn.9939, defined direction −
Summary of the method: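 Male F344 SPF rats, 5 weeks old, four per group, received carcinogens, non-carcinogens or solvent vehicle by oral gavage once daily for 28 days. Liver total RNA was then extracted. Changes of ≥1.5-fold or ≤1/1.5 versus vehicle control, in a consistent direction across carcinogens, counted as significant.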

SMILES	Liver carcinogenicity [1]	Carcinogenicity [2]	Behavior of gene caused by administration of chemical substance, Gene No. 4846 [3]	Behavior of gene caused by administration of chemical substance, Gene No. 4218 [3]	Behavior of gene caused by administration of chemical substance, Gene No. 2026 [3]	Behavior of gene caused by administration of chemical substance, Gene No. 6182 [3]	Behavior of gene caused by administration of chemical substance, Gene No. 5600 [3]	Behavior of gene caused by administration of chemical substance, Gene No. 1494 [3]	Behavior of gene caused by administration of chemical substance, Gene No. 2045 [3]	Behavior of gene caused by administration of chemical substance, Gene No. 2203 [3]	Behavior of gene caused by administration of chemical substance, Gene No. 533 [3]	Behavior of gene caused by administration of chemical substance, Gene No. 725 [3]	Behavior of gene caused by administration of chemical substance, Gene No. 1163 [3]	Behavior of gene caused by administration of chemical substance, Gene No. 4973 [3]	Behavior of gene caused by administration of chemical substance, Gene No. 4095 [3]	Behavior of gene caused by administration of chemical substance, Gene No. 1334 [3]	Behavior of gene caused by administration of chemical substance, Gene No. 6620 [3]	Behavior of gene caused by administration of chemical substance, Gene No. 6303 [3]	Behavior of gene caused by administration of chemical substance, Gene No. 5878 [3]	Behavior of gene caused by administration of chemical substance, Gene No. 1131 [3]	other results
CCN(CC)N=O [TS011, Diethylnitrosamine]	Cr+	C+	+	+	+	+	+	+	−	−	+	−	−	+	+	−	−	+	−	−	Behavior of gene caused by administration of chemical substance, Gene No. 1562 [3]: +; Behavior of gene caused by administration of chemical substance, Gene No. 1741 [3]: +; Behavior of gene caused by administration of chemical substance, Gene No. 893 [3]: +; Behavior of gene caused by administration of chemical substance, Gene No. 6026 [3]: +; Behavior of gene caused by administration of chemical substance, Gene No. 154 [3]: +; Behavior of gene caused by administration of chemical substance, Gene No. 1993 [3]: +; Behavior of gene caused by administration of chemical substance, Gene No. 813 [3]: −; Behavior of gene caused by administration of chemical substance, Gene No. 2494 [3]: +; Behavior of gene caused by administration of chemical substance, Gene No. 2546 [3]: +; Behavior of gene caused by administration of chemical substance, Gene No. 3776 [3]: −; Behavior of gene caused by administration of chemical substance, Gene No. 3929 [3]: −; Behavior of gene caused by administration of chemical substance, Gene No. 1119 [3]: −; Behavior of gene caused by administration of chemical substance, Gene No. 6742 [3]: −; Behavior of gene caused by administration of chemical substance, Gene No. 5634 [3]: −; Behavior of gene caused by administration of chemical substance, Gene No. 5726 [3]: −
O=NN1CCCCC1 [TS042, N-Nitrosopiperidine]	Cr+	C+	+	+	+	+	+	+	−	−	+	−	−	−	−	−	−	+	−	+	Behavior of gene caused by administration of chemical substance, Gene No. 1562 [3]: +; Behavior of gene caused by administration of chemical substance, Gene No. 1741 [3]: −; Behavior of gene caused by administration of chemical substance, Gene No. 893 [3]: −; Behavior of gene caused by administration of chemical substance, Gene No. 6026 [3]: −; Behavior of gene caused by administration of chemical substance, Gene No. 154 [3]: −; Behavior of gene caused by administration of chemical substance, Gene No. 1993 [3]: +; Behavior of gene caused by administration of chemical substance, Gene No. 813 [3]: +; Behavior of gene caused by administration of chemical substance, Gene No. 2494 [3]: −; Behavior of gene caused by administration of chemical substance, Gene No. 2546 [3]: −; Behavior of gene caused by administration of chemical substance, Gene No. 3776 [3]: −; Behavior of gene caused by administration of chemical substance, Gene No. 3929 [3]: −; Behavior of gene caused by administration of chemical substance, Gene No. 1119 [3]: −; Behavior of gene caused by administration of chemical substance, Gene No. 6742 [3]: −; Behavior of gene caused by administration of chemical substance, Gene No. 5634 [3]: −; Behavior of gene caused by administration of chemical substance, Gene No. 5726 [3]: +
